Measurements published in patent EP0315097A2, “Acyl labdane derivatives, process for their preparation and their use as medicines” (HOECHST AKTIENGESELLSCHAFT, priority 1987, dated 1989).
Converted amounts (≈) assume the structure as drawn. One block for each compound: values may come before it.

Experiments:
wachen Kaninchen = assay: Intraocular pressure (IOD) measurement in the conscious rabbit, Schioetz tonometer; format: in vivo; details: Dosis Prozent 2 (2 %ige Lösung, 100 µl instilled into one eye); for IOD-senkende Wirkung % Abnahme des IOD: decrease calculated from the baseline value; for IOD-senkende Wirkung Dauer: duration of the IOD-lowering effect
Source text: Für diesen Versuch werden 2 bis 3 kg schwere Kaninchen beider Geschlechter verwendet. Der intraokulare Druck (IOD) wird mit einem Schioetz-Tonometer nach Hornhaut-Anästhesie mit 2 %iger Novocainlösung gemessen. Zur Herstellung einer 2 %igen Lösung wird eine erfindungsgemäße Verbindung unter Verwendung der stöchiometrischen Menge 0,1 n-HCI, bzw. deren Salz direkt in Wasser gelöst. Nach Ermittlung des Ausgangswertes werden 100 u.l der Lösung der Testverbindung in eines der Augen, das Vehikel in das andere Auge instilliert. Der IOD wird in bestimmten Zeitabständen, d.h. 0,5; 1, 2, 3, 4 und 5 Stunden gemessen. Die prozentuale Abnahme des IOD wird anhand des Ausgangswertes berechnet.
(§1) Die bei diesem Modell für repräsentative erfindungsgemäße Verbindungen erhaltenen Ergebnisse sind in der nachfolgenden Tabelle aufgeführt: […]

Meerschweinchenvorhof = assay: Positive inotropic activity, contraction force of isolated electrically stimulated guinea pig atrium; design: species or system Meerschweinchen; details: isolated left and right atria, Ringer-Lösung, 32 C, contraction force recorded 7 bis 10 Minuten
Source text: Dafür wurde folgende Methode angewandt.
400 g schwere Meerschweinchen beider Geschlechter werden getötet, das Herz entnommen und bei Raumtemperatur in Ringer-Lösung eingebracht. Sowohl der linke als auch der rechte Vorhof werden dann isoliert, an einem Organhalter befestigt und in eine Ringer-Lösung enthaltendes, bei einer Temperatur von 32 C gehaltenes Bad eingebracht. In das Organbad läßt man ein Gemisch von 95 % O2 und 5 % C02 einperlen. Dann stimuliert man den Vorhof elektrisch. Die zu prüfende erfindungsgemäße Verbindung wird in Wasser zu einer Lösung bekannter Konzentration gelöst und dem Bad zugesetzt. Die Kontraktionskraft des Vorhofs wird 7 bis 10 Minuten lang über einen isometrischen Dehnungsmeßstreifen auf einem 4-Kanal-Schreiber von Nihon Kohden registriert. Die Aktivität wird gemäß den erhaltenen Daten als ECso ausgedrückt.
Die bei diesem Modell für repräsentative erfindungsgemäße Verbindungen erhaltenen Ergebnisse sind in der nachfolgenden Tabelle aufgeführt.

Katze = assay: Blood pressure lowering in the anaesthetised cat, femoral artery pressure; format: in vivo; details: for Abfall d. BD: Chloralose-Narkose; for Dauer: duration of the blood pressure lowering effect
Source text: 3 bis 4 kg schwere Katzen beider Geschlechter werden mit Äther anästhesiert und unter Chloralose-Narkose (70 mgkg i.v.) gehalten. Sowohl die Oberschenkel-Arterie als auch die -Vene werden zur Aufzeichnung des Blutdrucks bzw. zur Verabreichung der Arzneimittel mit Kanülen versehen. Der Blutdruck in der Oberschenkelarterie wird über einen Druckaufnehmer Statham P 23 Db auf einem Nihon-Kohden-Schreiber für physiologische Zwecke ausgezeichnet. Die zu prüfende Verbindung wird in destilliertem Wasser gelöst und intravenös verabreicht. Der Blutdruckabfall und die Dauer der blutdrucksenkenden Wirkung werden notiert.
as §1

SMILES: C=C[C@@]1(C)CC(=O)[C@]2(O)[C@@]3(C)[C@@H](O)CCC(C)(C)[C@@H]3[C@H](OC(=O)CN3CCCCC3)[C@H](OC(=O)N(CC)CC)[C@@]2(C)O1 [R6=[drawing], R7=CON(C2H5)2 (the 4th table, row 5)]
IOD-senkende Wirkung % Abnahme des IOD (wachen Kaninchen): 20%
IOD-senkende Wirkung Dauer (wachen Kaninchen): 420 min

EC50 (Meerschweinchenvorhof): 1.6 µg/mL (≈ 2.83 µM)
SMILES: C=C[C@@]1(C)CC(=O)[C@]2(O)[C@@]3(C)[C@@H](O)CCC(C)(C)[C@@H]3[C@H](OC(=O)CN3CCCCC3)[C@H](OC(=O)OCC)[C@@]2(C)O1 [R6=COCH2N[drawing], R7=COOC2H5]

SMILES: C=C[C@@]1(C)CC(=O)[C@]2(O)[C@@]3(C)[C@@H](O)CCC(C)(C)[C@@H]3[C@H](OC(=O)CCN3CCCCC3)[C@H](OC(=O)N(CC)CC)[C@@]2(C)O1 [R6=[drawing], R7=CON(C2H5)2 (the 4th table, row 3)]
IOD-senkende Wirkung % Abnahme des IOD (wachen Kaninchen): 25%
IOD-senkende Wirkung Dauer (wachen Kaninchen): 360 min

SMILES: C=C[C@@]1(C)CC(=O)[C@]2(O)[C@@]3(C)[C@@H](O)CCC(C)(C)[C@@H]3[C@H](OC(=O)CN3CCCCC3)[C@H](OC(=O)OCC)[C@@]2(C)O1 [R6=[drawing], R7=COOC2H5 (the 5th table, row 4)]
Abfall d. BD (Katze; Dosis 3 mg/kg intravenös): 60
Dauer (Katze; Dosis 3 mg/kg intravenös): 60 min

SMILES: C=C[C@@]1(C)CC(=O)[C@]2(O)[C@@]3(C)[C@@H](O)CCC(C)(C)[C@@H]3[C@H](OC(=O)CN3CCCCC3)[C@H](OC(=O)N(CC)CC)[C@@]2(C)O1 [R6=[drawing], R7=CON(C2H5)2 (the 5th table, row 5)]
Abfall d. BD (Katze; Dosis 1 mg/kg intravenös): 50
Dauer (Katze; Dosis 1 mg/kg intravenös): 20 min

SMILES: C=C[C@@]1(C)CC(=O)[C@]2(O)[C@@]3(C)[C@@H](O)CCC(C)(C)[C@@H]3[C@H](OC(=O)CCN3CCCCC3)[C@H](OC(=O)OCC)[C@@]2(C)O1 [R6=[drawing], R7=COOC2H5 (the 5th table, row 2)]
Abfall d. BD (Katze; Dosis 1 mg/kg intravenös): 40
Dauer (Katze; Dosis 1 mg/kg intravenös): >20 min

SMILES: C=C[C@@]1(C)CC(=O)[C@]2(O)[C@@]3(C)[C@@H](O)CCC(C)(C)[C@@H]3[C@H](OC(=O)CN3CCCCC3)[C@H](OC(=O)OCC)[C@@]2(C)O1 [R6=[drawing], R7=COOC2H5 (the 4th table, row 4)]
IOD-senkende Wirkung % Abnahme des IOD (wachen Kaninchen): 0%

SMILES: C=C[C@@]1(C)CC(=O)[C@]2(O)[C@@]3(C)[C@@H](O)CCC(C)(C)[C@@H]3[C@H](OC(=O)CCN3CCCCC3)[C@H](OC(=O)OCC)[C@@]2(C)O1 [R6=[drawing], R7=COOC2H5 (the 4th table, row 2)]
IOD-senkende Wirkung % Abnahme des IOD (wachen Kaninchen): 20%
IOD-senkende Wirkung Dauer (wachen Kaninchen): 300 min

SMILES: C=C[C@@]1(C)CC(=O)[C@]2(O)[C@@]3(C)[C@@H](O)CCC(C)(C)[C@@H]3[C@H](OC(=O)CCN3CCCCC3)[C@H](OC(=O)N(CC)CC)[C@@]2(C)O1 [R6=[drawing], R7=CON(C2H5)2 (the 5th table, row 3)]
Abfall d. BD (Katze; Dosis 1 mg/kg intravenös): 20
Dauer (Katze; Dosis 1 mg/kg intravenös): 60 min

EC50 (Meerschweinchenvorhof): 0.44 µg/mL (≈ 0.742 µM)
SMILES: C=C[C@@]1(C)CC(=O)[C@]2(O)[C@@]3(C)[C@@H](O)CCC(C)(C)[C@@H]3[C@H](OC(=O)CN3CCCCC3)[C@H](OC(=O)N(CC)CC)[C@@]2(C)O1 [R6=COCH2N[drawing], R7=CON(C2H5)2]

EC50 (Meerschweinchenvorhof): 0.79 µg/mL (≈ 1.3 µM)
SMILES: C=C[C@@]1(C)CC(=O)[C@]2(O)[C@@]3(C)[C@@H](O)CCC(C)(C)[C@@H]3[C@H](OC(=O)CCN3CCCCC3)[C@H](OC(=O)N(CC)CC)[C@@]2(C)O1 [R6=CO(CH2)2N[drawing], R7=CON(C2H5)2]
